According to US20220016080A1, “COMPOUNDS THAT SELECTIVELY AND EFFECTIVELY INHIBIT HAKAI-MEDIATED UBIQUITINATION, AS ANTI-CANCER DRUGS” (FUNDACIÓN PROFESOR NOVOA SANTOS, priority 2018, published 2022):

Key:
Assay type in all cases: cell-based
[1] = tested on: normal epithelial MDCK cell line; assay: MTT cell viability assay, MDCK; conditions: normal epithelial MDCK compared to Hakai-MDCK; 72 h
Experimental: (§1) For cytotoxicity assays, 1×10^4 cells were seeded per well into a 96-well plate. After 24 h cells were treated with the indicated inhibitors for 72 h and a MTT colorimetric cell viability assay was performed following manufacturer's instructions (Sigma Aldrich, St Louis, Mo.). Absorbance was measured at 570 and 630 nm using a Multiskan Plus Reader (Nanoquant Infinite M200 Tecan Trading AG, Switzerland). Dose-response curves were designed with Graph Pad Prism Software and the half-maximal inhibitory concentration (IC50) values were calculated. Represented data are the mean±SEM of at least three independent experiments with six replicates per condition.

HT-29 cells [2] = assay: Immunofluorescence of E-cadherin, HT-29; conditions: 48 h
Experimental: (§2) For western blot analysis, cells were treated with the indicated inhibitors for 48 h and the whole cell extracts were obtained as described previously. Twenty micrograms of lysates were resolved on a 10% polyacrilamide SDS-PAGE followed by western blot analysis performed as previously described. For immunofluorescence assays cells were grown for 24 h on glass coverslips and treated with the indicated inhibitors for 48 h. Cells were fixed with 4% PFA for 15 min, permeabilized with 0.5% […] and incubated with E-cadherin antibody for 2 h. Coverslips were incubated with fluorescein-tagged secondary antibody (Dakopatts, Sweden) for […]. Finally coverslips were mounted with ProLong Gold antifade reagent (LifeTech, UK) and images were taken in epifluorescence microscope (Olympus) using 40× objective.

[3] = target: T1, E3 ubiquitin-ligase Hakai (Mus musculus, UniProt Q9JIY2); assay: Hakai-dependent ubiquitination assay in 293T cells transfected with Flag-Hakai, v-Src and HA-ubiquitin; conditions: 293T cells transfected with Src, treated 36 h, DMSO as control
T1 construct: expressed in transfected cells; host or cells: HEK293T (293) cells, co-transfected with v-Src and HA-ubiquitin, and in A3 also with myc-E-cadherin
T1 sequence (Q9JIY2 1-491): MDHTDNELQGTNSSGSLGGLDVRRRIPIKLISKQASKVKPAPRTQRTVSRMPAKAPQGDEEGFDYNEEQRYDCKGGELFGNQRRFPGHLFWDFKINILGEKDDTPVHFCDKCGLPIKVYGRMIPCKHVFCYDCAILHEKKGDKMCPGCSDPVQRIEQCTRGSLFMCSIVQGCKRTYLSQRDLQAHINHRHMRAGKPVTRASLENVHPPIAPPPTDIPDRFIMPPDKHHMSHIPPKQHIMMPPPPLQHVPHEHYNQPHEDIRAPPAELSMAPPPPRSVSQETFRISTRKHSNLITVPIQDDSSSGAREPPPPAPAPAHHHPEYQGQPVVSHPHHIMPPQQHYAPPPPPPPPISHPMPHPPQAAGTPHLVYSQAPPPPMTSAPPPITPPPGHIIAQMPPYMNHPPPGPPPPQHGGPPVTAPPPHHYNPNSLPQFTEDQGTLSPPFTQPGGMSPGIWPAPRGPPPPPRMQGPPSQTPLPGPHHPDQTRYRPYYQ
Experimental: For ubiquitination assays, 750.000 HEK293T cells were seeded in 6-well cell culture plates and after 24 h were transfected with 0.25 μg Src, 0.75 μg Flag-Hakai, and 0.5 μg HA-ubiquitin with Lipofectamin 2000 (Invitrogen, UK). Six hours after transfection cells were treated with indicated concentrations of Hakin-1, Hakin-5 or the rest of the analogues tested for 36 h. Whole cell extracts were obtained in lysis buffer (20 mM Tris-HCl pH 7.5, 150 mM NaCl and 1% Triton X-100) containing 10 μg/ml leupeptin, 10 μg/ml aprotinin and 1 mM phenylmethanesulphonyl fluoride (PMSF), supplemented with 10 mM N-ethylmaleimide. Cells were harvested and subjected to western blotting using anti-HA antibody to detect ubiquitination.

[4] = tested on: Hakai-MDCK cell lines (clone 4 and clone 11); assay: MTT cell viability assay, Hakai-MDCK; conditions: both clones of Hakai-MDCK compared to MDCK; 72 h
Experimental: as §1

LoVo cells = assay: BrdU proliferation assay, LoVo; conditions: 48 h
Experimental: (§3) For BrdU assays, 1×10^4 of indicated cells were plated per well into a 96-well plate. After 24 h, cells were treated with the indicated inhibitors for 48 h. Three independent experiments were plated with six replicates per each condition. Cells were treated with […] BrdU for 2 h. BrdU incorporation into newly synthesized DNA was measured using a cell proliferation colorimetric immunoassay kit according to the manufacturer's instructions (Roche, Switzerland). Results are expressed as mean±S.D. Results are represented as percentage of positive cells (mean±S.D) of three independent experiments.

HT-29 cells [5] = assay: Western blotting of EMT markers, HT-29; conditions: 48 h
Experimental: as §2

[6] = tested on: Hakai-transformed MDCK cells; assay: Phase-contrast cell phenotype, Hakai-MDCK
Experimental: MDCK, HEK293T, HepG2, MCF7 and ACHN cells were cultured in Dulbecco's Modified Eagles Medium (DMEM). MDCK stably expressing Hakai cells (Hakai-MDCK) were previously reported and were growth in DMEM with G418 (800 μg/ml). […] LoVo and PC-3 cells were cultured in F-12K Medium (Kaighn's Modification of Ham's F-12 Medium) and HT-29 cells in McCoy's 5a Medium Modified. 5637 cells were cultured in RPMI medium. All culture media were supplemented with 1% penicillin/streptomycin and 10% of heat-inactivated fetal bovine serum (FBS) at 37° C. in a humidified incubator with 5% CO2. Cells were monthly tested for mycoplasma contamination and used only for 1-3 months after defrosted. LoVo and HT29 cells were authenticated with the StemElite ID system (Promega). For phase-contrast images, culture cells were photographed with a Nikon Eclipse-TI microscope.

HT29 cells = assay: BrdU proliferation assay, HT29; conditions: 48 h
Experimental: as §3

[7] = tested on: HT-29 colon tumour cell line; assay: MTT cell viability assay, HT29; conditions: 72 h, analogues at 50-500 μM
Experimental: as §1

Row | SMILES | sensitivity to treatment (cell viability, MTT) [1] | E-cadherin levels at cell-cell contacts (immunofluorescence) (HT-29 cells [2]) | ubiquitination mediated by Hakai (western blotting, anti-HA) [3] | sensitivity to treatment (cell viability, MTT) [4] | cell proliferation (BrdU) (LoVo cells) | E-cadherin levels (western blotting) (HT-29 cells [5]) | mesenchymal phenotype (phase contrast) [6] | cell proliferation (BrdU) (HT29 cells) | cytotoxicity effect (cell viability, MTT) [7]
1 | CC(/C=C/C(=O)O)=C\CC(O)/C(C)=C/CCC(C)C(C)O (stereo not shown) [Hakin-5, (2E,4E,8E)-7,13-Dihydroxy-4,8,12-trimethyl-2,4,8-tetradecatrienoic acid, reference compound] | more resistant | no effect | no effect was detected | more sensitive | no effect was seen | no effect | induction of an epithelial phenotype | no effect was seen | –
2 | O=C(O)c1ccc(-n2nnnc2SCC(=O)c2ccc(Cl)s2)cc1 [Hakin A-23] | – | – | inhibitory effect of Hakai activity | – | – | – | – | – | important inhibitory response
